The test system of assay [1] is Cullin-3 (CUL3) neddylation. Kind of assay: AlphaLISA assay for Cullin-3 (CUL3) neddylation in TF 1 cells. Format: cell-based. Particulars: Homo sapiens, 3 hours treatment. The procedure, abridged: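 TF 1 cells in unsupplemented IMDM treated with compound concentrations for 3 h, then lysed. CUL3 neddylation detected by AlphaLISA (biotinylated anti-NEDD8, anti-CUL3 acceptor beads overnight, streptavidin donor beads 1 h); normalized to vehicle (0%) and 1 μM DI-1548 (100%), IC50 from Hill fits.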

In assay [2] the target is DCN1 (DCUND1) protein PONY domain (Homo sapiens (Human), UniProt Q96GG9). The assay is described as follows: TR-FRET assay, DCN1 binding with FAM-labeled probe. Summed up: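 Biotinylated DCN1 PONY domain, labeled with streptavidin-Tb, was competed against a FAM-labeled non-covalent DCN1 inhibitor probe in buffer with TritonX and 200 mM NaCl. Conditions were 5 nM DCN1 with 20 nM FAM-probe, or 0.31 nM DCN1 with 100 nM FAM-plus 800 nM unlabeled probe. The TR-FRET ratio was read at 1, 5 and 24 h (0.1% DMSO).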
In general terms: TR-FRET usually uses a lanthanide donor and a delayed reading to cut background.

Setting [3] is: 24 hr after treatment with compound, read-out: TR FRET IC50 24 hr.
Where [4] appears, read: TR FRET IC50 1 hr (nM), 1 hr after treatment with compound.
Where [5] appears, read: read-out: TR FRET IC50 1 hr, 1 hr after treatment with compound.

Like-named read-outs stand apart in the source and are kept apart here. Bounds are passed on as bounds.

DCN1 (DCUND1) protein PONY domain, sequence (Q96GG9 60-248): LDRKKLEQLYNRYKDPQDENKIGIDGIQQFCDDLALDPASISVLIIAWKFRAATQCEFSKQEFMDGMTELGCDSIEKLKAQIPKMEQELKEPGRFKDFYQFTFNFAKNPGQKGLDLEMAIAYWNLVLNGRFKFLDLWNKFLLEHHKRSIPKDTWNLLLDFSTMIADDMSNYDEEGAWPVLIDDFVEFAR

The term IC50 denotes the point on the concentration scale where inhibition reaches its midpoint. `CCN1C(=O)[C@@H](NC(=O)c2cccc(C(F)(F)F)c2)[C@@H](C2CCCC2)c2c(C(=O)N(CC#N)C3CC3)nn(C3CCOCC3)c21` [Compound I-478]: the IC50 in assay [1] (TF-1, 3 h) was 100 to 1000 nM; in assay [2] (setting [3]) it was at most 200 nM; in assay [2] (setting [4]), 1000 to 3000 nM.
With `CCCn1nc(C(=O)N2CCC[C@H]2C#N)c2c1N(CC)C(=O)[C@H](NC(=O)c1cccc(C(F)(F)F)c1)[C@@H]2c1ccc(F)cc1` [Compound I-479], the IC50 in assay [1] (TF-1, 3 h) was above 1000 nM; in assay [2] (setting [3]), 1000 to 3000 nM; in assay [2] (setting [4]), 1000 to 3000 nM.
As for `CCN1C(=O)[C@H](NC(=O)c2cccc(C(F)(F)F)c2)[C@H](c2ccc(F)cc2)c2c(C(=O)N3CCC[C@H]3C#N)nn(-c3cccc(OCCCN(C)C4COC4)c3)c21` [Compound I-480, N-((4R,5R)-3-((S)-2-cyanopyrrolidine-1-carbonyl)-7-ethyl-4-(4-fluorophenyl)-1-(3-(3-(methyl(oxetan-3-yl)amino)propoxy)phenyl)-6-oxo-4,5,6,7-tetrahydro-1H-pyrazolo[3,4-b]pyridin-5-yl)-3-(trifluoromethyl)benzamide], the IC50 in assay [1] (TF-1, 3 h) is above 1000 nM; in assay [2] (setting [3]), 1000 to 3000 nM; in assay [2] (setting [4]) it was 1000 to 3000 nM.
Consider `CCN1C(=O)[C@@H](NC(=O)c2csc(C)c2)[C@@H](C2CC2)c2c(C(=O)N3[C@H](C#N)C[C@H]4C[C@H]43)nn(C3CCOCC3)c21` [Compound I-481], for which the 50% inhibitory concentration (IC50) is at most 100 nM in assay [1], at most 200 nM in assay [2] (setting [3]) and at most 200 nM in assay [2] (setting [5]).
Regarding `CCN1C(=O)[C@@H](NC(=O)c2ccc3scnc3c2)[C@@H](C2CC2)c2c(C(=O)N3[C@H](C#N)C[C@H]4C[C@H]43)nn(C3CCOCC3)c21` [Compound I-483], the 50% inhibitory concentration (IC50) was above 1000 nM in assay [1] (TF-1, 3 h); 200 to 1000 nM in assay [2] (setting [3]); 1000 to 3000 nM in assay [2] (setting [4]).
As to `CCN1C(=O)[C@@H](NC(=O)c2cccc(C(F)(F)F)c2)[C@@H](c2ccc(F)cc2)c2c([C@@H](CO)NC#N)nn(-c3ccccc3)c21` [Compound I-487], the IC50 was 100 to 1000 nM in assay [1] (TF-1, 3 h); at most 200 nM in assay [2] (setting [3]); 200 to 1000 nM in assay [2] (setting [4]).
For the compound `CCN1C(=O)[C@@H](NC(=O)c2cccc(C(F)(F)F)c2)[C@@H](c2ccc(F)cc2)c2c([C@H](CCCO)NC#N)nn(-c3ccccc3)c21` [Compound I-489], the IC50 was at most 100 nM in assay [1] (TF-1, 3 h); at most 200 nM in assay [2] (setting [3]); 200 to 1000 nM in assay [2] (setting [4]).
For the compound `CCN1C(=O)[C@@H](NC(=O)c2cccc(C(F)(F)F)c2)[C@@H](c2ccc(F)cc2)c2c(CNC/C=C/C(=O)N(C)C)nn(-c3ccccc3)c21` [Compound I-490], the IC50 in assay [1] (TF-1, 3 h) was 100 to 1000 nM; in assay [2] (setting [3]) it was at most 200 nM; in assay [2] (setting [5]), at most 200 nM.
On to `CCN1C(=O)[C@@H](NC(=O)c2cccc(C(F)(F)F)c2)[C@@H](C2CC2)c2c(C(=O)N(C)C(C)C#N)nn(C3CC3)c21` (stereo partly drawn) [Compound I-492], for which the IC50 is at most 100 nM in assay [1] (TF-1, 3 h); 200 to 1000 nM in assay [2] (setting [3]); 200 to 1000 nM in assay [2] (setting [4]).
`CCN1C(=O)[C@H](NC(=O)c2cccc(C(F)(F)F)c2)[C@H](c2ccc(C)cc2)c2c(C(=O)N(C)CC#N)nn(C3CC3)c21` [Compound I-494]: the IC50 in assay [1] (TF-1, 3 h) was above 1000 nM; in assay [2] (setting [3]), 1000 to 3000 nM; in assay [2] (setting [4]), 1000 to 3000 nM.
For `CCN1C(=O)[C@@H](NC(=O)c2nccc(C(F)(F)F)n2)[C@H](c2ccc(F)cc2)c2c(CNC(=O)/C=C/C(=O)N3CCCC3)nn(-c3ccccc3)c21` [Compound I-495], the IC50 is above 1000 nM in assay [1] (TF-1, 3 h); 200 to 1000 nM in assay [2] (setting [3]); 200 to 1000 nM in assay [2] (setting [4]).
In the case of `CCN1C(=O)[C@@H](NC(=O)c2cccc(C(F)(F)F)c2)[C@@H](c2ccc(F)cc2)c2c(CN(C#N)CCCN3CCOCC3)nn(-c3ccccc3)c21` [Compound I-496], the IC50 in assay [1] (TF-1, 3 h) is at most 100 nM; in assay [2] (setting [3]) it was at most 200 nM; in assay [2] (setting [5]), at most 200 nM.
Turning to `CCN1C(=O)[C@@H](NC(=O)c2cccc(C(F)(F)F)c2)[C@@H](c2ccc(F)cc2)c2c([C@@H](CCC(O)CO)NC#N)nn(-c3ccccc3)c21` (stereo partly drawn) [Compound I-497], the IC50 is at most 100 nM in assay [1] (TF-1, 3 h); at most 200 nM in assay [2] (setting [3]); at most 200 nM in assay [2] (setting [5]).
Take `C[C@@H](NC#N)c1nn(-c2ccccc2)c2c1[C@@H](c1ccc(F)cc1)[C@@H](NC(=O)c1cccc(C(F)(F)F)c1)C(=O)N2CCO` [Compound I-498]: the IC50 in assay [1] (TF-1, 3 h) was above 1000 nM; in assay [2] (setting [3]), 1000 to 3000 nM; in assay [2] (setting [4]) it was 1000 to 3000 nM.
With `CCN1C(=O)[C@@H](NC(=O)c2cccc(C(F)(F)F)c2)[C@@H](c2ccc(F)cc2)c2c([C@@H](C)NC(N)=O)nn(-c3ccccc3)c21` [Compound I-499, N-((4S,5S)-7-ethyl-4-(4-fluorophenyl)-6-oxo-1-phenyl-3-((R)-1-ureidoethyl)-4,5,6,7-tetrahydro-1H-pyrazolo[3,4-b]pyridin-5-yl)-3-(trifluoromethyl)benzamide], the IC50 in assay [1] (TF-1, 3 h) is 100 to 1000 nM; in assay [2] (setting [3]), 1000 to 3000 nM; in assay [2] (setting [4]) it was 1000 to 3000 nM.
Turning to `CCN1C(=O)[C@@H](NC(=O)c2cccc(C(F)(F)F)c2)[C@@H](C2CC2)c2c(C(=O)N3C[C@@H](NC)C[C@H]3C#N)nn(C3CCOCC3)c21` [Compound I-503, N-((4S,5S)-3-((2S,4S)-2-cyano-4-(methylamino)pyrrolidine-1-carbonyl)-4-cyclopropyl-7-ethyl-6-oxo-1-(tetrahydro-2H-pyran-4-yl)-4,5,6,7-tetrahydro-1H-pyrazolo[3,4-b]pyridin-5-yl)-3-(trifluoromethyl)benzamide], the IC50 was above 1000 nM in assay [1] (TF-1, 3 h); 200 to 1000 nM in assay [2] (setting [3]); 1000 to 3000 nM in assay [2] (setting [4]).
For the compound `CCN1C(=O)[C@@H](NC(=O)c2cnc(C)cc2Cl)[C@@H](C2CC2)c2c(C(=O)N3[C@H](C#N)C[C@H]4C[C@H]43)nn(C3CCOCC3)c21` [Compound I-506], the IC50 was above 1000 nM in assay [1] (TF-1, 3 h); 1000 to 3000 nM in assay [2] (setting [3]); 1000 to 3000 nM in assay [2] (setting [4]).
Take `CCN1C(=O)[C@@H](NC(=O)c2cccc(C(F)(F)F)c2F)[C@@H](C2CC2)c2c(C(=O)N3[C@H](C#N)C[C@H]4C[C@H]43)nn(C3CCOCC3)c21` [Compound I-514]: the values for the IC50 in assay [1], in assay [2] (setting [3]) and in assay [2] (setting [5]) were at most 100 nM, at most 200 nM and at most 200 nM, respectively.
As for `CCN1C(=O)[C@@H](NC(=O)c2cccc(C(F)(F)F)c2)[C@@H](C2CCC2)c2c(C(=O)N(CC#N)C3CC3)nn(C3CCOCC3)c21` [Compound I-515], the concentration for half-maximal inhibition (IC50) in assay [1] (TF-1, 3 h) is 100 to 1000 nM; in assay [2] (setting [3]) it was at most 200 nM; in assay [2] (setting [4]), 200 to 1000 nM.
Turning to `CCN1C(=O)[C@@](C)(NC(=O)c2cccc(C(F)(F)F)c2)[C@@H](C2CC2)c2c(C(=O)N3[C@H](C#N)C[C@H]4C[C@H]43)nn(C3CCOCC3)c21` [Compound I-516, N-((4S,5S)-3-((1R,3S,5R)-3-cyano-2-azabicyclo[3.1.0]hexane-2-carbonyl)-4-cyclopropyl-7-ethyl-5-methyl-6-oxo-1-(tetrahydro-2H-pyran-4-yl)-4,5,6,7-tetrahydro-1H-pyrazolo[3,4-b]pyridin-5-yl)-3-(trifluoromethyl)benzamide], the 50% inhibitory concentration (IC50) was at most 100 nM in assay [1] (TF-1, 3 h); at most 200 nM in assay [2] (setting [3]); at most 200 nM in assay [2] (setting [5]).
As to `CCN1C(=O)[C@@H](NC(=O)c2cccc(C(F)(F)F)c2)[C@@H](C2CC2)c2c(C(=O)N3CS(=O)(=O)C[C@H]3C#N)nn(-c3ccccc3)c21` [Compound I-519], the IC50 in assay [1] (TF-1, 3 h) was at most 100 nM; in assay [2] (setting [3]) it was at most 200 nM; in assay [2] (setting [5]), at most 200 nM.

The values above are taken from patent US20250163057A1, “DCN-1 MODULATING COMPOUNDS AND METHODS OF USE THEREOF” (Cellarity, Inc., priority 2023, published 2025).
